From PubChem BioAssay (NCI) come the findings set out here.

What all share (assay): NCI tumour cell line growth inhibition, 48 h
The test system of test [1] is A498 renal.
Test [2] concerns HCT-116 colon.
In test [3] the test system is HCT-15 colon.
The subject of test [4] is KM20L2 colon.
The test system of test [5] is LOX IMVI melanoma.
Test [6] deals with MOLT-4 leukemia.
Test [7] concerns NCI-H522 lung.
Test [8] relates to SF-295 CNS.
The subject of test [9] is SN12C renal.
Test [10] relates to UO-31 renal.

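Values below derive from 48-hour exposures of cells grown in 96-well plates, with endpoints linearly interpolated between the two concentrations bracketing the appropriate inhibition level. Abbreviation: GI50, concentration required for 50% inhibition of growth. Definition used: TGI = concentration required for complete inhibition of growth.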

For the molecule `O=C([CH-]C(=O)c1ccccc1)c1ccccc1.O=C([CH-]C(=O)c1ccccc1)c1ccccc1.O=C([CH-]C(=O)c1ccccc1)c1ccccc1.[Nd+3].[OH3+]`, the GI50 was 9 µM in [1]; 4.92 µM in test [2]; 8.7 µM in test [3]; 10.9 µM in test [4]; 11.5 µM in test [5]; 2.24 µM in [6]. Besides, the GI50 in [7] was 2.06 µM; in test [8] it was 2.07 µM; in [9], 11.1 µM; in [10] it was 2.85 µM. The TGI turned out to be 27.3 µM in test [1]; 19.1 µM in [2]; 53.6 µM in [3]; 48 µM in test [4]; 29.4 µM in test [5]; 12.5 µM in test [6]. For the same molecule, the TGI in [7] was 7.28 µM; in test [8], 13.5 µM; in test [9] it was 68.8 µM; in test [10], 8.19 µM.
As to `C=C(CCCCCCCCC)CC(=O)SCCNC(=O)CCNC(=O)C(O)C(C)(C)COP(=O)(O)OP(=O)(O)OCC1OC(n2cnc3c(N)ncnc32)C(O)C1OP(=O)(O)O` (stereo not given), the TGI in [1] was above 100 µM; in test [2] it was above 100 µM; in [3] it was above 100 µM; in test [4] it was above 100 µM; in [5] it was 75.7 µM; in test [6], above 100 µM. In addition, the TGI in test [7], in test [8], in test [9] and in [10] was above 100 µM in each case.
As to `CC(=O)NNc1nc(C)c(C(=O)NNC(=O)C(=O)Nc2c(C)cccc2C)s1`, the TGI in [1] is above 100 µM; in test [2], above 100 µM; in [3] it was above 100 µM; in test [4] it was above 100 µM; in test [5] it was above 100 µM; in test [6], 80.1 µM. The TGI in test [7] is 32.8 µM; in [8] it was above 100 µM; in test [9], above 100 µM; in test [10] it was above 100 µM.
Regarding `COC(=O)C(C(=O)C(=O)Nc1ccc(C(F)(F)F)cc1[N+](=O)[O-])c1csc(-n2nc(-c3ccccc3)cc2-c2ccccc2)n1` (stereo not given), the TGI in test [1], in test [2], in test [3], in test [4], in test [5] and in test [6] was above 100 µM in each case. For the same molecule, the TGI in [7], in test [8], in test [9] and in test [10] was above 100 µM throughout.
In the case of `CC1OC(OCC2OC(Oc3c(-c4ccc(O)cc4)oc4cc(O)cc(O)c4c3=O)C(OC3OC(C)C(O)C(O)C3O)C(O)C2O)C(O)C(O)C1O` (stereo not given), the TGI in test [1] is above 100 µM; in test [2], above 100 µM; in [3], above 56.8 µM; in test [4], above 100 µM; in [5] it was above 100 µM; in test [6], above 100 µM. Also, the TGI in [7], in test [8], in test [9] and in test [10] was above 100 µM throughout.
On to `CC(=O)Nc1ccc(C(=O)NN2C(=O)C(Cl)C2c2ccc([N+](=O)[O-])cc2)cc1` (stereo not given), for which the TGI in [1], in test [2], in test [3], in test [4], in test [5] and in [6] was above 100 µM throughout. In addition, the TGI in test [7], in test [8], in test [9] and in test [10] was above 100 µM in each case.
For `COC(=O)C1C(O)CC(c2ccccn2)N(Cc2ccccc2)C1c1ccccn1` (stereo not given), the TGI in test [1], in test [2], in test [3], in [4], in [5] and in [6] was above 100 µM in each case. For the same molecule, the TGI in test [7], in test [8], in test [9] and in test [10] was above 100 µM in each case.
Turning to `CCOC(=O)/C(O)=C/c1cc(OC)cc(=O)o1`, the TGI in test [1], in test [2], in test [3], in test [4], in [5] and in [6] was above 100 µM in each case. Besides, the TGI in test [7], in [8], in test [9] and in [10] was above 100 µM each time.
Regarding `O=C1C=CC=CC2CC=C[C@@H](O)C12` (stereo not given in full), the TGI in [1] was 38.2 µM; in [2], 27.7 µM; in test [3] it was 35.2 µM; in test [4] it was 56 µM; in [5], 38.9 µM; in test [6], above 100 µM. The TGI in test [7] came out at 26.8 µM; in test [8], 48.5 µM; in test [9], 47.2 µM; in [10], 31.5 µM.
Consider `COc1ccccc1/C=C1\CCC(CCN(C)C)(C2=CCCC2)C1=O` (stereo not given), for which the TGI in test [1] worked out at 32.1 µM; in test [2] it was 25.3 µM; in [3], 61.8 µM; in test [4], 15.7 µM; in test [5] it was 31.3 µM; in test [6], 54.3 µM. Moreover, the TGI in test [7] was 27.1 µM; in [8], 31.7 µM; in test [9], 50.3 µM; in test [10] it was 31.4 µM.
For the molecule `CC(C)C1(O)C(c2ccccc2)=C(c2ccccc2)C(c2ccccc2)=C1c1ccccc1`, the TGI in test [1] was found to be 56.3 µM; in [2], 13.4 µM; in test [3] it was 46.8 µM; in [4], 23.3 µM; in [5] it was 20 µM; in test [6] it was 9.27 µM. Also, the TGI in [7] is 23.9 µM; in test [8], 30.2 µM; in test [9] it was 41.6 µM; in test [10], 23.7 µM.
As to `Cc1ccc(-c2cc(-c3ccco3)c(C#N)c(=O)[nH]2)cc1`, the TGI in test [1], in test [2], in test [3], in [4], in test [5] and in [6] was above 100 µM in each case. Further, the TGI in [7], in test [8], in test [9] and in [10] was above 100 µM throughout.
